Results taken from patent US11000033B2, “Ketone or oxime compound, and herbicide” (NISSAN CHEMICAL CORPORATION, priority 2014, dated 2021).

Columns and labels:
Type in all cases: in vivo
Avena fatua = assay: Test Example 4: herbicidal effect by soil treatment (symbol I); conditions: application herbicide amount 320 g/ha
In short: (§1)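 Seeds were sown in sterilized diluvial soil, covered with about 1.5 cm of soil, and the soil surface was sprayed with a water-diluted emulsion of the compound at a predetermined rate. Plants grew in a greenhouse at 25° C. to 30° C.; effects were scored visually 3 weeks after application.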

Galium spurium = assay: Test Example 5: herbicidal effect by foliage application, plastic box (symbol Q); conditions: 320 g/ha, 3 weeks after application
In short: (§2)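 Greenhouse foliar test: seedlings at 14 days, grown 25° C. to 30° C. in sterilized diluvial soil; compound applied as an aqueous dilution of an emulsion; response read 3 weeks after spraying.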

Setaria viridis = assay: Test Example 5: herbicidal effect by foliage application, plastic box (symbol G); conditions: 320 g/ha, 3 weeks after application
In short: as §2

Lolium multiflorum Lam. [1] = assay: Test Example 5: herbicidal effect by foliage application, plastic box (symbol K); conditions: 320 g/ha, 3 weeks after application
In short: as §2

Lolium multiflorum Lam. [2] = assay: Test Example 4: herbicidal effect by soil treatment (symbol K); conditions: application herbicide amount 320 g/ha
In short: as §1

[3] = test system: Echinochloa crus-galli var. crus-galli; assay: Test Example 4: herbicidal effect by soil treatment (symbol H); conditions: application herbicide amount 320 g/ha
In short: as §1

[4] = test system: Echinochloa oryzacola Vasing.; assay: Test Example 2: herbicidal activity, application during weed generation in submerged conditions (symbol A); conditions: Table 23; application herbicide amount 320 g/ha; grade 0-5 by criteria of Test Example 1
In short: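 Each pot contained alluvial soil under 4 cm of water with seeds of all three weeds sown together. Following growth at 25° C. to 30° C. to the one- to two-leaf stage, the floodwater received diluted emulsion at a predetermined amount; visual assessment followed at 3 weeks.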

Veronica persica [5] = assay: Test Example 4: herbicidal effect by soil treatment (symbol R); conditions: application herbicide amount 320 g/ha
In short: as §1

rice plant = assay: Test Example 5: effect on crop by foliage application, plastic box (symbol b); conditions: 320 g/ha, 3 weeks after application
In short: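 A greenhouse held between 25° C. and 30° C. was used to grow plants sown spot-wise, beneath ~1.5 cm of soil, in boxes of sterilized diluvial soil.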

[6] = test system: Echinochloa oryzacola Vasing.; assay: Test Example 1: herbicidal activity, application before weed generation in submerged conditions (symbol A); conditions: application herbicide amount 320 g/ha
In short: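 In a flooded pot test with alluvial soil, the emulsion-formulated compound was diluted with water to a predetermined amount and applied to the floodwater immediately on the sowing day. Pots were held in a greenhouse at 25–30 °C for 3 weeks before each weed was rated.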

Stellaria media = assay: Test Example 5: herbicidal effect by foliage application, plastic box (symbol P); conditions: 320 g/ha, 3 weeks after application
In short: as §2

Alopecurus myosuroides = assay: Test Example 4: herbicidal effect by soil treatment (symbol J); conditions: application herbicide amount 320 g/ha
In short: as §1

corn = assay: Test Example 4: effect on crop by soil treatment (symbol c); conditions: application herbicide amount 320 g/ha
In short: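 Soil-treatment setup: crop and weed seeds were spot-sown into sterilized diluvial soil, then buried beneath approximately 1.5 cm of it, and the boxes were housed in a 25–30° C. greenhouse.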

Veronica persica [7] = assay: Test Example 5: herbicidal effect by foliage application, plastic box (symbol R); conditions: 320 g/ha, 3 weeks after application
In short: as §2

Amaranthus retroflexus = assay: Test Example 5: herbicidal effect by foliage application, plastic box (symbol N); conditions: 320 g/ha, 3 weeks after application
In short: as §2

Abutilon theophrasti = assay: Test Example 5: herbicidal effect by foliage application, plastic box (symbol M); conditions: 320 g/ha, 3 weeks after application
In short: as §2

rapeseed = assay: Test Example 4: effect on crop by soil treatment (symbol g); conditions: application herbicide amount 320 g/ha
In short: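 Sterilized diluvial soil, spot sowing, ~1.5 cm soil cover; greenhouse 25–30° C.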

With `CON=C(CC1CC(O)=C(c2c(C)cc(C)cc2C)C1=O)c1ccccc1` (centres unmarked) [1-047] the “I (Avena fatua) herbicidal effect grade” value (Avena fatua) was 0 (Herbicidal ratio of 5% or lower (almost no effect)), the “Q: Galium spurium, herbicidal effect grade” value (Galium spurium) was 0 (Herbicidal ratio of 5% or lower (almost no effect)) and the “G: Setaria viridis, herbicidal effect grade” value (“G: Setaria viridis” below) (Setaria viridis) was 1 (Herbicidal ratio of 5% or higher and lower than 20%). The “K: Lolium multiflorum Lam., herbicidal effect grade” value (Lolium multiflorum Lam. [1]) was 4 (Herbicidal ratio of 70% or higher and lower than 90%), the “K (Lolium multiflorum Lam.) herbicidal effect grade” value (Lolium multiflorum Lam. [2]) was 3 (Herbicidal ratio of 40% or higher and lower than 70%) and the “H (Echinochloa crus-galli var. crus-galli) herbicidal effect grade” value [3] was 3 (Herbicidal ratio of 40% or higher and lower than 70%). The “Herbicidal effect grade, A: Echinochloa oryzacola Vasing.” value [4] was 2 (Herbicidal ratio of 20% or higher and lower than 40%), the “R (Veronica persica) herbicidal effect grade” value (Veronica persica [5]) was 0 (Herbicidal ratio of 5% or lower (almost no effect)) and the “b: directly sowed rice plant, effect on crop grade” value (“b: directly sowed rice plant” below) (rice plant) was 4 (Herbicidal ratio of 70% or higher and lower than 90%). The “Herbicidal effect grade, A: Echinochloa oryzacola Vasing.” value [6] was 4 (Herbicidal ratio of 70% or higher and lower than 90%), the “P: Stellaria media, herbicidal effect grade” value (from here on “P: Stellaria media”) (Stellaria media) was 0 (Herbicidal ratio of 5% or lower (almost no effect)) and the “J (Alopecurus myosuroides) herbicidal effect grade” value (Alopecurus myosuroides) was 0 (Herbicidal ratio of 5% or lower (almost no effect)). The “c (corn) effect on crop grade” value (corn) was 0 (Herbicidal ratio of 5% or lower (almost no effect)), the “R: Veronica persica, herbicidal effect grade” value (Veronica persica [7]) was 0 (Herbicidal ratio of 5% or lower (almost no effect)) and the “N: Amaranthus retroflexus, herbicidal effect grade” value (“N: Amaranthus retroflexus” for short) (Amaranthus retroflexus) was 0 (Herbicidal ratio of 5% or lower (almost no effect)). For the same compound, the “M: Abutilon theophrasti, herbicidal effect grade” value (“M: Abutilon theophrasti” below) (Abutilon theophrasti) was 0 (Herbicidal ratio of 5% or lower (almost no effect)).
For `CON=C(CC1CC(O)=C(c2c(C)cc(Br)cc2C)C1=O)C1CC1` (centres unmarked) [9-002], the “Herbicidal effect grade, I: Avena fatua” value (Avena fatua) was 3 (Herbicidal ratio of 40% or higher and lower than 70%), the “G: Setaria viridis” value (Setaria viridis) was 5 (Herbicidal ratio of 90% or more (almost completely withered)) and the “Effect on crop grade, g: rapeseed” value (rapeseed) was 0 (Herbicidal ratio of 5% or lower (almost no effect)). The “K: Lolium multiflorum Lam., herbicidal effect grade” value (Lolium multiflorum Lam. [1]) was 5 (Herbicidal ratio of 90% or more (almost completely withered)), the “Herbicidal effect grade, K: Lolium multiflorum Lam.” value (Lolium multiflorum Lam. [2]) was 5 (Herbicidal ratio of 90% or more (almost completely withered)) and the “Herbicidal effect grade, H: Echinochloa crus-galli var. crus-galli” value [3] was 5 (Herbicidal ratio of 90% or more (almost completely withered)). For the same compound, the “Herbicidal effect grade, A: Echinochloa oryzacola Vasing.” value [4] was 5 (Herbicidal ratio of 90% or more (almost completely withered)), the “Herbicidal effect grade, R: Veronica persica” value (Veronica persica [5]) was 0 (Herbicidal ratio of 5% or lower (almost no effect)) and the “b: directly sowed rice plant” value (rice plant) was 5 (Herbicidal ratio of 90% or more (almost completely withered)). For the same compound, the “Herbicidal effect grade, A: Echinochloa oryzacola Vasing.” value [6] was 5 (Herbicidal ratio of 90% or more (almost completely withered)), the “P: Stellaria media” value (Stellaria media) was 0 (Herbicidal ratio of 5% or lower (almost no effect)) and the “Herbicidal effect grade, J: Alopecurus myosuroides” value (Alopecurus myosuroides) was 5 (Herbicidal ratio of 90% or more (almost completely withered)). The “Effect on crop grade, c: corn” value (corn) was 3 (Herbicidal ratio of 40% or higher and lower than 70%), the “R: Veronica persica, herbicidal effect grade” value (Veronica persica [7]) was 1 (Herbicidal ratio of 5% or higher and lower than 20%) and the “N: Amaranthus retroflexus” value (Amaranthus retroflexus) was 3 (Herbicidal ratio of 40% or higher and lower than 70%). For the same compound, the “M: Abutilon theophrasti” value (Abutilon theophrasti) was 4 (Herbicidal ratio of 70% or higher and lower than 90%).
In the case of `CON=C(C)CC1CC(OC(=O)C(C)(C)Oc2cccc(Cl)c2)=C(c2c(C)cc(C)cc2C)C1=O` (centres unmarked) [1-065], the “I (Avena fatua) herbicidal effect grade” value (Avena fatua) is reported as 3 (Herbicidal ratio of 40% or higher and lower than 70%), the “G: Setaria viridis” value (Setaria viridis) is reported as 5 (Herbicidal ratio of 90% or more (almost completely withered)) and the “g (rapeseed) effect on crop grade” value (rapeseed) is reported as 4 (Herbicidal ratio of 70% or higher and lower than 90%). For the same compound, the “K: Lolium multiflorum Lam., herbicidal effect grade” value (Lolium multiflorum Lam. [1]) was 5 (Herbicidal ratio of 90% or more (almost completely withered)), the “K (Lolium multiflorum Lam.) herbicidal effect grade” value (Lolium multiflorum Lam. [2]) was 5 (Herbicidal ratio of 90% or more (almost completely withered)) and the “H (Echinochloa crus-galli var. crus-galli) herbicidal effect grade” value [3] was 5 (Herbicidal ratio of 90% or more (almost completely withered)). For the same compound, the “Herbicidal effect grade, A: Echinochloa oryzacola Vasing.” value [4] was 4 (Herbicidal ratio of 70% or higher and lower than 90%), the “R (Veronica persica) herbicidal effect grade” value (Veronica persica [5]) was 0 (Herbicidal ratio of 5% or lower (almost no effect)) and the “b: directly sowed rice plant” value (rice plant) was 5 (Herbicidal ratio of 90% or more (almost completely withered)). The “Herbicidal effect grade, A: Echinochloa oryzacola Vasing.” value [6] was 5 (Herbicidal ratio of 90% or more (almost completely withered)), the “P: Stellaria media” value (Stellaria media) was 0 (Herbicidal ratio of 5% or lower (almost no effect)) and the “J (Alopecurus myosuroides) herbicidal effect grade” value (Alopecurus myosuroides) was 5 (Herbicidal ratio of 90% or more (almost completely withered)). The “c (corn) effect on crop grade” value (corn) was 5 (Herbicidal ratio of 90% or more (almost completely withered)), the “R: Veronica persica, herbicidal effect grade” value (Veronica persica [7]) was 3 (Herbicidal ratio of 40% or higher and lower than 70%) and the “N: Amaranthus retroflexus” value (Amaranthus retroflexus) was 2 (Herbicidal ratio of 20% or higher and lower than 40%). For the same compound, the “M: Abutilon theophrasti” value (Abutilon theophrasti) was 4 (Herbicidal ratio of 70% or higher and lower than 90%).
`CON=C(CC1CC(OC(=O)COc2ccccc2)=C(c2c(C)cc(C)cc2C)C1=O)C1CC1` (centres unmarked) [1-063] was tested, and the “I (Avena fatua) herbicidal effect grade” value (Avena fatua) was 3 (Herbicidal ratio of 40% or higher and lower than 70%), the “G: Setaria viridis” value (Setaria viridis) was 5 (Herbicidal ratio of 90% or more (almost completely withered)) and the “g (rapeseed) effect on crop grade” value (rapeseed) was 0 (Herbicidal ratio of 5% or lower (almost no effect)). The “K: Lolium multiflorum Lam., herbicidal effect grade” value (Lolium multiflorum Lam. [1]) was 5 (Herbicidal ratio of 90% or more (almost completely withered)), the “K (Lolium multiflorum Lam.) herbicidal effect grade” value (Lolium multiflorum Lam. [2]) was 5 (Herbicidal ratio of 90% or more (almost completely withered)) and the “H (Echinochloa crus-galli var. crus-galli) herbicidal effect grade” value [3] was 5 (Herbicidal ratio of 90% or more (almost completely withered)). The “Herbicidal effect grade, A: Echinochloa oryzacola Vasing.” value [4] was 4 (Herbicidal ratio of 70% or higher and lower than 90%), the “R (Veronica persica) herbicidal effect grade” value (Veronica persica [5]) was 0 (Herbicidal ratio of 5% or lower (almost no effect)) and the “b: directly sowed rice plant” value (rice plant) was 5 (Herbicidal ratio of 90% or more (almost completely withered)). The “Herbicidal effect grade, A: Echinochloa oryzacola Vasing.” value [6] was 5 (Herbicidal ratio of 90% or more (almost completely withered)), the “P: Stellaria media” value (Stellaria media) was 0 (Herbicidal ratio of 5% or lower (almost no effect)) and the “J (Alopecurus myosuroides) herbicidal effect grade” value (Alopecurus myosuroides) was 5 (Herbicidal ratio of 90% or more (almost completely withered)). For the same compound, the “c (corn) effect on crop grade” value (corn) was 4 (Herbicidal ratio of 70% or higher and lower than 90%), the “R: Veronica persica, herbicidal effect grade” value (Veronica persica [7]) was 4 (Herbicidal ratio of 70% or higher and lower than 90%) and the “N: Amaranthus retroflexus” value (Amaranthus retroflexus) was 0 (Herbicidal ratio of 5% or lower (almost no effect)). The “M: Abutilon theophrasti” value (Abutilon theophrasti) was 2 (Herbicidal ratio of 20% or higher and lower than 40%).
With `CON=C(C)CC1CC(OC(=O)C(C)(C)Oc2ccccc2Cl)=C(c2c(C)cc(C)cc2C)C1=O` (centres unmarked) [1-064] the “I (Avena fatua) herbicidal effect grade” value (Avena fatua) was 3 (Herbicidal ratio of 40% or higher and lower than 70%), the “G: Setaria viridis” value (Setaria viridis) was 5 (Herbicidal ratio of 90% or more (almost completely withered)) and the “g (rapeseed) effect on crop grade” value (rapeseed) was 4 (Herbicidal ratio of 70% or higher and lower than 90%). The “K: Lolium multiflorum Lam., herbicidal effect grade” value (Lolium multiflorum Lam. [1]) was 3 (Herbicidal ratio of 40% or higher and lower than 70%), the “K (Lolium multiflorum Lam.) herbicidal effect grade” value (Lolium multiflorum Lam. [2]) was 5 (Herbicidal ratio of 90% or more (almost completely withered)) and the “H (Echinochloa crus-galli var. crus-galli) herbicidal effect grade” value [3] was 5 (Herbicidal ratio of 90% or more (almost completely withered)). For the same compound, the “Herbicidal effect grade, A: Echinochloa oryzacola Vasing.” value [4] was 5 (Herbicidal ratio of 90% or more (almost completely withered)), the “R (Veronica persica) herbicidal effect grade” value (Veronica persica [5]) was 0 (Herbicidal ratio of 5% or lower (almost no effect)) and the “b: directly sowed rice plant” value (rice plant) was 5 (Herbicidal ratio of 90% or more (almost completely withered)). The “Herbicidal effect grade, A: Echinochloa oryzacola Vasing.” value [6] was 5 (Herbicidal ratio of 90% or more (almost completely withered)), the “P: Stellaria media” value (Stellaria media) was 1 (Herbicidal ratio of 5% or higher and lower than 20%) and the “J (Alopecurus myosuroides) herbicidal effect grade” value (Alopecurus myosuroides) was 5 (Herbicidal ratio of 90% or more (almost completely withered)). The “c (corn) effect on crop grade” value (corn) was 5 (Herbicidal ratio of 90% or more (almost completely withered)), the “R: Veronica persica, herbicidal effect grade” value (Veronica persica [7]) was 3 (Herbicidal ratio of 40% or higher and lower than 70%) and the “N: Amaranthus retroflexus” value (Amaranthus retroflexus) was 2 (Herbicidal ratio of 20% or higher and lower than 40%). The “M: Abutilon theophrasti” value (Abutilon theophrasti) was 4 (Herbicidal ratio of 70% or higher and lower than 90%).
